Assay results from patent US20260262643A1, “HERBICIDAL BENZOXAZINES” (FMC CORPORATION, priority 2022, published 2026).

Key:
sedge, umbrella = test: Test B flooded paddy test; format: in vivo, Cyperus difformis; details: 250 g ai/ha, Flood, 13 days, 0 to 100 scale (0 no effect, 100 complete control)
Procedure, shortened: (§1)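 Compound is introduced into paddy water covering soil by 3 cm, treating plants that have reached two leaves. Pots are kept flooded at that depth under greenhouse conditions. Assessment at 13 days gives a 0–100 visual control score.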

ducksalad = test: Test B flooded paddy test; format: in vivo, Heteranthera limosa; details: 250 g ai/ha, Flood, 13 days, 0 to 100 scale (0 no effect, 100 complete control)
Procedure, shortened: as §1

kochia [1] = test: Test A preemergence; format: in vivo, Bassia scoparia; details: visual injury after 10 days, 0 to 100 scale, 0 is no effect, 100 is complete control
Procedure, shortened: (§2)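 Greenhouse pot test, 10 days. Compound (non-phytotoxic solvent, surfactant) sprayed on soil at seeding or on seedlings at one- to two-leaf stage. Visual injury rated 0–100 against untreated plants.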

corn [2] = test: Test A postemergence; format: in vivo, Zea mays; details: postemergence, 10 days
Procedure, shortened: as §2

barnyardgrass [3] = test: Test A postemergence; format: in vivo, Echinochloa crusgalli; details: postemergence, 10 days
Procedure, shortened: as §2

blackgrass [4] = test: Test A preemergence; format: in vivo, Alopecurus myosuroides; details: visual injury after 10 days, 0 to 100 scale, 0 is no effect, 100 is complete control
Procedure, shortened: as §2

foxtail, giant [5] = test: Test A preemergence; format: in vivo, Setaria faberi; details: visual injury after 10 days, 0 to 100 scale, 0 is no effect, 100 is complete control
Procedure, shortened: as §2

kochia [6] = test: Test A postemergence; format: in vivo, Bassia scoparia; details: postemergence, 10 days
Procedure, shortened: as §2

wheat [7] = test: Test A postemergence; format: in vivo, Triticum aestivum; details: postemergence, 10 days
Procedure, shortened: as §2

barnyardgrass [8] = test: Test B flooded paddy test; format: in vivo, Echinochloa crus-galli; details: 250 g ai/ha, Flood, 13 days, 0 to 100 scale (0 no effect, 100 complete control)
Procedure, shortened: as §1

oat, wild [9] = test: Test A postemergence; format: in vivo, Avena fatua; details: postemergence, 10 days
Procedure, shortened: as §2

wheat [10] = test: Test A preemergence; format: in vivo, Triticum aestivum; details: visual injury after 10 days, 0 to 100 scale, 0 is no effect, 100 is complete control
Procedure, shortened: as §2

barnyardgrass [11] = test: Test A preemergence; format: in vivo, Echinochloa crusgalli; details: visual injury after 10 days, 0 to 100 scale, 0 is no effect, 100 is complete control
Procedure, shortened: as §2

galium = test: Test A postemergence; format: in vivo, Galium aparine; details: postemergence, 10 days
Procedure, shortened: as §2

corn [12] = test: Test A preemergence; format: in vivo, Zea mays; details: visual injury after 10 days, 0 to 100 scale, 0 is no effect, 100 is complete control
Procedure, shortened: as §2

soybean [13] = test: Test A preemergence; format: in vivo, Glycine max; details: visual injury after 10 days, 0 to 100 scale, 0 is no effect, 100 is complete control
Procedure, shortened: as §2

oat, wild [14] = test: Test A preemergence; format: in vivo, Avena fatua; details: visual injury after 10 days, 0 to 100 scale, 0 is no effect, 100 is complete control
Procedure, shortened: as §2

blackgrass [15] = test: Test A postemergence; format: in vivo, Alopecurus myosuroides; details: postemergence, 10 days
Procedure, shortened: as §2

foxtail, giant [16] = test: Test A postemergence; format: in vivo, Setaria faberi; details: postemergence, 10 days
Procedure, shortened: as §2

rice = test: Test B flooded paddy test; format: in vivo, Oryza sativa; details: 250 g ai/ha, Flood, 13 days, 0 to 100 scale (0 no effect, 100 complete control)
Procedure, shortened: as §1

pigweed, palmer [17] = test: Test A preemergence; format: in vivo, Amaranthus palmeri; details: visual injury after 10 days, 0 to 100 scale, 0 is no effect, 100 is complete control
Procedure, shortened: as §2

ragweed [18] = test: Test A preemergence; format: in vivo, Ambrosia artemisiifolia; details: visual injury after 10 days, 0 to 100 scale, 0 is no effect, 100 is complete control
Procedure, shortened: as §2

ryegrass, Italian [19] = test: Test A postemergence; format: in vivo, Lolium multiflorum; details: postemergence, 10 days
Procedure, shortened: as §2

pigweed, palmer [20] = test: Test A postemergence; format: in vivo, Amaranthus palmeri; details: postemergence, 10 days
Procedure, shortened: as §2

ryegrass, Italian [21] = test: Test A preemergence; format: in vivo, Lolium multiflorum; details: visual injury after 10 days, 0 to 100 scale, 0 is no effect, 100 is complete control
Procedure, shortened: as §2

soybean [22] = test: Test A postemergence; format: in vivo, Glycine max; details: postemergence, 10 days
Procedure, shortened: as §2

horseweed = test: Test A postemergence; format: in vivo, Erigeron canadensis; details: postemergence, 10 days
Procedure, shortened: as §2

ragweed [23] = test: Test A postemergence; format: in vivo, Ambrosia artemisiifolia; details: postemergence, 10 days
Procedure, shortened: as §2

[24] = 125 g ai/ha, 0 to 100 scale, 0 no effect, 100 complete control
[25] = 500 g ai/ha, visual injury, 0 to 100 scale (0 no effect, 100 complete control)

Compound: CC(C)Cc1ncn(-c2cccc(C(=O)N3C[C@H](C)Oc4c(Cl)cccc43)c2)n1 [Compound 112]
- Plant response rating, Sedge, Umbrella (sedge, umbrella): 0
- Plant response rating, Ducksalad (ducksalad): 0
- Plant response rating, Kochia (kochia [1]; 125 g ai/ha): 0
- Plant response rating, Kochia (kochia [1]; 500 g ai/ha): 60
- Corn plant response rating (corn [2]; [24]): 20
- Plant response rating, Corn (corn [2]; [25]): 40
- Barnyardgrass plant response rating (barnyardgrass [3]; [24]): 10
- Plant response rating, Barnyardgrass (barnyardgrass [3]; [25]): 40
- Plant response rating, Blackgrass (blackgrass [4]; 125 g ai/ha): 20
- Plant response rating, Blackgrass (blackgrass [4]; 500 g ai/ha): 80
- Plant response rating, Foxtail, Giant (foxtail, giant [5]; 125 g ai/ha): 50
- Plant response rating, Foxtail, Giant (foxtail, giant [5]; 500 g ai/ha): 90
- Kochia plant response rating (kochia [6]; [24]): 70
- Plant response rating, Kochia (kochia [6]; [25]): 90
- Wheat plant response rating (wheat [7]; [24]): 10
- Plant response rating, Wheat (wheat [7]; [25]): 20
- Plant response rating, Barnyardgrass (barnyardgrass [8]): 0
- Oat, Wild plant response rating (oat, wild [9]; [24]): 10
- Plant response rating, Oat, Wild (oat, wild [9]; [25]): 30
- Plant response rating, Wheat (wheat [10]; 125 g ai/ha): 20
- Plant response rating, Wheat (wheat [10]; 500 g ai/ha): 40
- Plant response rating, Barnyardgrass (barnyardgrass [11]; 125 g ai/ha): 40
- Plant response rating, Barnyardgrass (barnyardgrass [11]; 500 g ai/ha): 100
- Galium plant response rating (galium; [24]): 90
- Plant response rating, Galium (galium; [25]): 100
- Plant response rating, Corn (corn [12]; 125 g ai/ha): 0
- Plant response rating, Corn (corn [12]; 500 g ai/ha): 0
- Plant response rating, Soybean (soybean [13]; 125 g ai/ha): 0
- Plant response rating, Soybean (soybean [13]; 500 g ai/ha): 50
- Plant response rating, Oat, Wild (oat, wild [14]; 125 g ai/ha): 0
- Plant response rating, Oat, Wild (oat, wild [14]; 500 g ai/ha): 20
- Blackgrass plant response rating (blackgrass [15]; [24]): 0
- Plant response rating, Blackgrass (blackgrass [15]; [25]): 60
- Foxtail, Giant plant response rating (foxtail, giant [16]; [24]): 20
- Plant response rating, Foxtail, Giant (foxtail, giant [16]; [25]): 70
- Plant response rating, Rice (rice): 0
- Plant response rating, Pigweed, Palmer (pigweed, palmer [17]; 125 g ai/ha): 50
- Plant response rating, Pigweed, Palmer (pigweed, palmer [17]; 500 g ai/ha): 100
- Plant response rating, Ragweed (ragweed [18]; 125 g ai/ha): 0
- Plant response rating, Ragweed (ragweed [18]; 500 g ai/ha): 40
- Ryegrass, Italian plant response rating (ryegrass, Italian [19]; [24]): 10
- Plant response rating, Ryegrass, Italian (ryegrass, Italian [19]; [25]): 60
- Pigweed, Palmer plant response rating (pigweed, palmer [20]; [24]): 50
- Plant response rating, Pigweed, Palmer (pigweed, palmer [20]; [25]): 90
- Plant response rating, Ryegrass, Italian (ryegrass, Italian [21]; 125 g ai/ha): 40
- Plant response rating, Ryegrass, Italian (ryegrass, Italian [21]; 500 g ai/ha): 90
- Soybean plant response rating (soybean [22]; [24]): 90
- Plant response rating, Soybean (soybean [22]; [25]): 100
- Horseweed plant response rating (horseweed; [24]): 0
- Plant response rating, Horseweed (horseweed; [25]): 0
- Ragweed plant response rating (ragweed [23]; [24]): 0
- Plant response rating, Ragweed (ragweed [23]; [25]): 0
